Experiment [1] deals with T1, DPP-IV (Homo sapiens, UniProt P27487).
T1 construct: The assay is conducted by adding 20 µg solubilized Caco-2 protein; host or cells: Caco-2 (differentiated), NP-40 solubilized cell extract
Nature of the experiment: Caco-2 DPP-IV Assay (inhibition of DPP-IV activity from human colonic carcinoma cell extracts). The class given is biochemical. The note with it: Caco-2 cell extract, substrate H-Alanine-Proline-pNA, 8-point dose-response curves. The protocol:
The human colonic carcinoma cell line Caco-2 was obtained from the American Type Culture Collection (ATCC HTB 37). Differentiation of the cells to induce DPP-IV expression was accomplished as described by Reisher, et al. in an article entitled "Increased expression of intestinal cell line Caco-2" in Proc. Natl. Acad. Sci., Vol. 90, pgs. […] Cell extract is prepared from cells solubilized in 10mM Tris HCI, 0.15 M NaCl, 0.04 t.i.u.aprotinin, 0.5% nonidet-P40, pH 8.0, which is centrifuged at 35,000 g for 30 min. at 4 °C. to remove cell debris. The assay is conducted by adding 20 µg solubilized Caco-2 protein, diluted to a final volume of 125 µl in assay buffer (25 mM Tris HCI pH 7.4, 140mM NaCl, 10 mM KCI, 1% bovine serum albumin) to microtiter plate wells. After a 60 min. incubation at room temperature, the reaction is initiated by adding 25 µl of 1 mM substrate (H-Alanine-Proline-pNA; pNA is p-nitroaniline). […] A standard curve of free p-nitroaniline is generated using 0-500 µM solutions of free pNA in assay buffer. The curve generated is linear and is used for interpolation of substrate consumption (catalytic activity in nmoles substrate cleaved /min).
The potency of the test compounds as DPP-IV inhibitors, expressed as IC50, is calculated from 8-point, dose-response curves using a 4-parameter logistic function.

Experiment [2] has as its target T2, human plasma DPP-IV (Homo sapiens, UniProt P27487).
T2 construct: from tissue; host or cells: human plasma
The experiment in a line: DPP-IV activity in human plasma (modified Kubota assay). The class given is biochemical. The note with it: substrate H-Glycine-Proline-AMC, 8-point dose-response curves. The protocol: (§1) Briefly, 5 µl of plasma are added to 96-well flat-bottom micortiter plates (Falcon), followed by the addition of 5 µl of 80 mM MgCl2 in incubation buffer (25 mMHEPES, 140 mM NaCl, 1% RIA-grade BSA, pH 7.8). After a 60 min. incubation at room temperature, the reaction is initiated by the addition of 10 µl of incubation buffer containing 0.1 mM substrate (H-Glycine-Proline-AMC; AMC is 7-amino-4-methylcoumarin). The plates are covered with aluminum foil (or kept in the dark) and incubated at room temperature for 20 min. […] A fluorescence-concentration curve of free AMC is generated using 0-50 µM solutions of AMC in assay buffer. The curve generated is linear and is used for interpolation of substrate consumption (catalytic activity in nmoles substrate cleaved/min). As with the previous assay, the potency of the test compounds as DPP-IV inhibitors, expressed as IC50, is calculated from 8-point, dose-response curves using a 4 parameter logistic function.

The target of experiment [3] is T3, rat plasma DPP-IV (Rattus norvegicus, UniProt P14740).
T3 construct: from tissue; host or cells: rat plasma
T3 sequence (P14740 37-767 limits assumed): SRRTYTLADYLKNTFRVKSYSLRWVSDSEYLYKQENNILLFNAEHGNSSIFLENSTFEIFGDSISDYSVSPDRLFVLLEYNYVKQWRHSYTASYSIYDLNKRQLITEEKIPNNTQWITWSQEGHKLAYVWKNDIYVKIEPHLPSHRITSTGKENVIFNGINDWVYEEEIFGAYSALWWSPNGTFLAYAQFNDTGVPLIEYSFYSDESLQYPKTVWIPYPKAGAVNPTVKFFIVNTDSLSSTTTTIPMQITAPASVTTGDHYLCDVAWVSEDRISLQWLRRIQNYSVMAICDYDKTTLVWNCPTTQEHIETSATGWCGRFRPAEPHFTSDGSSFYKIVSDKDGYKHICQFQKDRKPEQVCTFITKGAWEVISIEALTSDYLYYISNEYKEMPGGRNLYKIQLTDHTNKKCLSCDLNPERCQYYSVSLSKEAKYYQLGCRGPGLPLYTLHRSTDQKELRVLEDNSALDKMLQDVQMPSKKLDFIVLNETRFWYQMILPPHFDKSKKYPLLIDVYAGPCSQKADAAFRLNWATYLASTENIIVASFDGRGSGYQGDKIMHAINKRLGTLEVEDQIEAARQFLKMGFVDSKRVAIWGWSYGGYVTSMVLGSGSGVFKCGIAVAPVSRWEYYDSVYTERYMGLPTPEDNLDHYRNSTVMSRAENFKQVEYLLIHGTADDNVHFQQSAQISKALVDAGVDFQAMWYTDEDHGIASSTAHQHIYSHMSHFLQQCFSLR
The experiment in a line: DPP-IV activity in rat plasma (modified Kubota assay). The note with it: substrate H-Glycine-Proline-AMC, 8-point dose-response curves. The class given is biochemical. The protocol: as §1

The target in experiment [4] is T4, plasma DPP-IV (Rattus norvegicus, UniProt P14740).
T4 construct: from tissue; host or cells: plasma of male Sprague-Dawley rats dosed orally (in vivo / ex vivo read-out)
T4 sequence (P14740 37-767 limits assumed): as above
The experiment in a line: Plasma DPP-IV activity after oral dosing in insulin resistant rats (oral glucose challenge study). The class given is in vivo, Male Sprague-Dawley rats. As to conditions: 10 µmol/kg orally, ten minutes prior to glucose (1 g/kg p.o.), n=7-8, read-out: inhibition of plasma DPP-IV activity during the study. From the text:
(§2) More specifically, for example, the compounds of formula 1, and their corresponding pharmaceutically acceptable acid addition salts, improve early insulin response to an oral glucose challenge and, therefore, are useful in treating non-insulin-dependent diabetes mellitus. The ability of the compounds of formula I, and their corresponding pharmaceutically acceptable acid addition salts, to improve early insulin response to an oral glucose challenge may be measured in insulin resistant rats according to the following method:
(§3) Male Sprague-Dawley rats that had been fed a high fat diet (saturated fat = 57% calories) for 2-3 weeks were fasted for approximately 2 hours on the day of testing, divided into groups of 7-10, and dosed orally with 10 µmol/kg of test compound in carboxymethylcellulose. […] Blood samples, obtained at various time-points from chronic jugular vein catheters, were analyzed for plasma glucose concentration. Data are expressed as % decrease of the area under the plasma glucose curve compared to vehicle-treated control animals.

A short description of experiment [5]: Oral glucose challenge in insulin resistant high fat fed rats: plasma glucose excursion. The note with it: 10 µmol/kg orally; glucose 1 g/kg p.o.; % decrease of area under the plasma glucose curve compared to vehicle-treated control animals. The class given is in vivo, Male Sprague-Dawley rats.
Excerpt: as §2, §3

Where a name gives a salt, the structure may show the parent alone.

T1 sequence (P27487 whole entry): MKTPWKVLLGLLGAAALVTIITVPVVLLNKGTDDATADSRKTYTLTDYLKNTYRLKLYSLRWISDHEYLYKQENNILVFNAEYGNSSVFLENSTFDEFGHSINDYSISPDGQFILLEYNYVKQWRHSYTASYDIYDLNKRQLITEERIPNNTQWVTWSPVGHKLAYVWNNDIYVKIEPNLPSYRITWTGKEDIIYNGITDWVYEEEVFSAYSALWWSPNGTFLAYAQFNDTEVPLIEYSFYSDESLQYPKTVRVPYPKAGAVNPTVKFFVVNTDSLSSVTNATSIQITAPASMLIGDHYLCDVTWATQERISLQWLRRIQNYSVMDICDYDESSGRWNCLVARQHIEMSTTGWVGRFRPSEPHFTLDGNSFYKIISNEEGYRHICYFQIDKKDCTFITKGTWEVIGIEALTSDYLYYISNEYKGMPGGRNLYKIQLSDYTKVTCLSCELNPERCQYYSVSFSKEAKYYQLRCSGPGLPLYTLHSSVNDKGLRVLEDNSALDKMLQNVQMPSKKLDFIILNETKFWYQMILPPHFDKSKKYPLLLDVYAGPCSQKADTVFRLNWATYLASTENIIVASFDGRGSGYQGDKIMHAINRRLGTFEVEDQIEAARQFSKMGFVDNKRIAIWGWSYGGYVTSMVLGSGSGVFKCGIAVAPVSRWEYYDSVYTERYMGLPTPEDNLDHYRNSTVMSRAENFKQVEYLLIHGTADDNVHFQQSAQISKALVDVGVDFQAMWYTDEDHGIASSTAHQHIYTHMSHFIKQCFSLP
T2 sequence (P27487 39-766 limits assumed): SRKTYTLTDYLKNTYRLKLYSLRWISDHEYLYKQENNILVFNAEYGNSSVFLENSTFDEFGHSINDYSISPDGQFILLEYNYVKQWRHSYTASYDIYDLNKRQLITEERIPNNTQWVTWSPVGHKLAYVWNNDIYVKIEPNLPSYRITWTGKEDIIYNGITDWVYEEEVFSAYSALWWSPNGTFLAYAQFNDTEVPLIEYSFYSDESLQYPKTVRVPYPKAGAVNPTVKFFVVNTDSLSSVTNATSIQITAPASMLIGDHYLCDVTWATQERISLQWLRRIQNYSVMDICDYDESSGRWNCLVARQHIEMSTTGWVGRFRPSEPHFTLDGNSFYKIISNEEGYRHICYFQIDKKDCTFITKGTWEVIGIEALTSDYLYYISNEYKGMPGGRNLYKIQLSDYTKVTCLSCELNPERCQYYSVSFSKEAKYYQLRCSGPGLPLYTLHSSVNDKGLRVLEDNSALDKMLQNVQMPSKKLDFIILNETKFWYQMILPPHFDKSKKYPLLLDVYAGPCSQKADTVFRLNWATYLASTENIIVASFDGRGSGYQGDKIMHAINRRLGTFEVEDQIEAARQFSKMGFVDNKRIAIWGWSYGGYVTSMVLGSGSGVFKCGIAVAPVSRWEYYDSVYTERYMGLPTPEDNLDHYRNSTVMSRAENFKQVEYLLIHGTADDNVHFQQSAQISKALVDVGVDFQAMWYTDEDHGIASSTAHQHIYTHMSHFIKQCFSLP

Consider `CC(C)(CNc1ccc(Cl)cn1)NCC(=O)N1CCC[C@H]1C#N` [Ex. 1, 1-[[[2-[(5-Chloro-2-pyridinyl)amino]-1,1-dimethylethyl]amino]acetyl]-2-cyano-(S)-pyrrolidine, monohydrochloride], for which the IC50 (as a rule, the concentration that inhibits the measured activity by half) turned out to be 2 nM in experiment [1], 30 nM in experiment [2] and 6 nM in experiment [3].
In the same order, the values of `N#C[C@@H]1CCCN1C(=O)CNC1CCC(Oc2ccc(C(F)(F)F)cc2)CC1` (stereo partly drawn) [Ex. 2EE, 1-[[[4-[4-(trifluoromethyl)phenoxy]cyclohexyl]amino]acetyl]-2-cyano-(S)-pyrrolidine, monohydrochloride] are 23 nM, 150 nM and 46 nM.
For the molecule `N#C[C@@H]1CCCN1C(=O)CNC1CCC(NS(=O)(=O)c2ccccc2)CC1` (stereo partly drawn) [Ex. 2M, 1-[[[4-[(phenylsulfonyl)amino]cyclohexyl]amino]acetyl]-2-cyano-(S)-pyrrolidine, monohydrochloride], the IC50 in experiment [1] came to 34 nM; in experiment [2] it was 10 nM; in experiment [3], 6 nM.
As for `N#C[C@@H]1CCCN1C(=O)CNC1CCC(NC(=O)c2ccccc2)CC1` (stereo partly drawn) [Ex. 2N, 1-[[[4-(benzoylamino)cyclohexyl]amino]acetyl]-2-cyano-(S)-pyrrolidine], the IC50 in experiment [1] turned out to be 5 nM; in experiment [2], 10 nM; in experiment [3], 5 nM. Further, in experiment [4], the inhibition (usually the share of the control response that was lost under treatment) at 10 µmol/kg turned out to be 80%. Besides, in experiment [5], the “Decrease of plasma glucose excursion at 10 µmovkg (p=0.01)” value worked out at 39%.
As for `N#C[C@@H]1CCCN1C(=O)CNC1CCC(Nc2ccnc(Cl)n2)CC1` (stereo partly drawn) [Ex. 2S, 1-[[[4-[(2-chloro-4-pyrimidinyl)amino]cyclohexyl]amino]acetyl]-2-cyano-(S)-pyrrolidine, dihydrochloride], the IC50 in experiment [1] worked out at 3 nM; in experiment [2] it was 4 nM; in experiment [3] it was 2 nM.
With `CC(C)(C)C(=O)NC1CCC(NCC(=O)N2CCC[C@H]2C#N)CC1` (stereo partly drawn) [Ex. 2U, 1-[[[4-[(2,2-dimethyl-1-oxopropyl)amino]cyclohexyl]amino]acetyl]-2-cyano-(S)-pyrrolidine, monohydrochloride], the figures for the half-maximal inhibitory concentration (IC50) in experiment [1], in experiment [2] and in experiment [3] were 39 nM, 27 nM and 14 nM, respectively.
Turning to `N#Cc1ccc(NC2CCC(NCC(=O)N3CCC[C@H]3C#N)CC2)cc1` (stereo partly drawn) [Ex. 2W, 1-[[[4-[(4-cyanophenyl)amino]cyclohexyl]amino]acetyl]-2-cyano-(S)-pyrrolidine, dihydrochloride], the half-maximal inhibitory concentration (IC50) came out at 13 nM in experiment [1], 19 nM in experiment [2] and 7 nM in experiment [3].
For `N#C[C@@H]1CCCN1C(=O)CNC1CCC(Nc2nc3cc(Cl)ccc3s2)CC1` (stereo partly drawn) [Ex. 2Y, 1-[[[4-[(5-chloro-2-benzothiazolyl)amino]cyclohexyl]amino]acetyl]-2-cyano-(S)-pyrrolidine, dihydrochloride], the half-maximal inhibitory concentration (IC50) in experiment [1] came to 12 nM; in experiment [2] it was 124 nM; in experiment [3], 37 nM.
For `N#C[C@@H]1CCCN1C(=O)CNC1CCN(S(=O)(=O)c2ccc(Cl)cc2)CC1` [Ex. 3, 1-[[[1-[(4-Chlorophenyl)sulfonyl]-4-piperidinyl]amino]acetyl]-2-cyano-(S)-pyrrolidine, monohydrochloride], the IC50 turned out to be 124 nM in experiment [1], 204 nM in experiment [2] and 107 nM in experiment [3].
